Test results reported in patent US20250367209A1 (SOUTHERN RESEARCH INSTITUTE, priority 2022, published 2025).
Entries after “also recorded” stand apart in the source; their conditions may differ.

Tests used:
FynSH3 = FynSH3 (Homo sapiens (Human), UniProt P06241); assay: Isothermal titration calorimetry, FynSH3; type: binding
Description: Human Fyn-SH3 domain with GST-tag at the N-terminus and a Strep-tag II ([…]) at the C-terminus (GST-Fyn-SH3-Strep) was cloned into pPR-IBA1 vector (IBA Lifesciences) (Cochran, et al. (2014) J. Biomol. Screen. 19, 1338-1349). Codon-optimized human 4R2N Tau for E. coli expression with a Strep-tag II at the C-terminus (His-Tau-Strep) was cloned into pET-28a(+) vector (Novagen). The constructs were transformed into E. coli BL-21(DE3) competent cells (Novagen). For GST-Fyn-SH3-Strep purification, a single colony was inoculated in Luria-Bertani (LB) broth at 37° C. overnight. 10 mL cell culture was added into 500 mL LB medium and cultured at 37° C. 0.5 mM Isopropyl β-D-1-thiogalactopyranoside (IPTG) was added into the culture when OD600 reached 0.7. Cells were further cultured at 25° C. for 4 hours and harvested. Cell pellet was resuspended in lysis buffer (20 mM Tris pH 7.9, 300 mM NaCl, 1 mM TCEP) with 1 tablet of EDTA-free protease inhibitors (ThermoFisher) and 1 mg/ml lysozyme. Cells were disrupted by sonication and debris was removed by centrifugation at 9500 rpm for 1 hour. […]
Purified full-length Tau and FynSH3 were dialyzed into 20 mM Tris and 150 mM NaCl, pH 8.0 with Slide-A-Lyzer G2 Dialysis Cassettes with 10K MWCO (ThermoFisher #87729). […] Protein concentrations were measured on a Nanodrop2000 (ThermoFisher) based on absorbance at 280 nm. […]

Tau-PxxP5/6 = Tau-PxxP5/6 (Homo sapiens (Human), UniProt P10636); assay: Isothermal titration calorimetry, Tau-PxxP5/6 peptide; type: binding
Method: ITC experiments were performed on an Auto-iTC200 system (Malvern Instruments, Westborough, MA). ITC sample cell contained ˜120 μM full-length Tau, FynSH3, or Tau-PxxP5/6 (titrand), and the syringe contained 1 mM compound no. 69 (titrant). Each titration experiment consisted of 16 injections of […] of titrant into titrand at 25° C. Background mixing heat was determined from injections of titrant into the same buffer without titrand. Data analysis was performed using the built-in analysis module in Origin 7 provided by the ITC manufacturer. The normalized titration heat was fitted to a “one set of sites” model to determine the best-fit binding parameters.

Tau-LckSH3 interaction = Tau-LckSH3 interaction (Homo sapiens (Human), UniProt P10636); assay: Tau-Flag PLA, Tau-LckSH3; type: cell-based; settings: 15 μM, HEK-293 cells
Method: Tau-Flag PLA for Tau-SH3 interactions: To clone the SH3 constructs, a C-terminal Flag tag was added to the Tau construct using PCR, then the Tau sequence was replaced with the desired SH3 domain using In-Fusion HD cloning kit (Takara Bio). Next, an N-terminal GST tag was added to help expression using In-Fusion, resulting in GST-SH3-Flag plasmids. As a negative control, restriction enzymes were used to remove the FynSH3 from the FynSH3 construct, resulting in GST-Flag. All sequences were confirmed with Sanger sequencing, and expression in HEK-293 cells was verified by western blot and immunocytochemistry. Plating and experimental timeline was the same as above. Cells were transfected with 125 ng of Tau-mKate2 and 500 ng SH3 plasmid with 1.5 μL Fugene. compound no. 69 was applied to final concentration 15 μM. For Tau-SH3 PLA, we used Dako Tau (1:1000) and Flag (1:1000) primary antibodies.

Sequence of Tau-LckSH3 interaction (P10636 other isoform, or with tags, fused parts or gaps): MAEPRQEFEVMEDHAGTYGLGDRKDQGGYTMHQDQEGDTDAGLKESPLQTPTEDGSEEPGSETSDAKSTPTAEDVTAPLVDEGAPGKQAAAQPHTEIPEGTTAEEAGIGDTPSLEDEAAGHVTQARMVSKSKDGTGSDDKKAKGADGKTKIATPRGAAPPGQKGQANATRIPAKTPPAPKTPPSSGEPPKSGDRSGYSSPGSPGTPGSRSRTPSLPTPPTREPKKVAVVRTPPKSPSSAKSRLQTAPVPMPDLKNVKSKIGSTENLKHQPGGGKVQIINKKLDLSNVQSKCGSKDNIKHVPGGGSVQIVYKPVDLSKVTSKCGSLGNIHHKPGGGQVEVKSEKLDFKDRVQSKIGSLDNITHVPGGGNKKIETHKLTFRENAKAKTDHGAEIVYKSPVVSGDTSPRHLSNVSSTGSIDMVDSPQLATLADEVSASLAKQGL
Sequence of FynSH3 (P06241 82-143): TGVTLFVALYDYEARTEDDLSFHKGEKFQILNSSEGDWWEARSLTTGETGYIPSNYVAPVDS

## O=C(CN1CCOc2ccccc21)Nc1nnc(-c2ccccn2)[nH]1 [compound no. 69]
FynSH3
  binding to FynSH3, ITC: did not bind FynSH3
Tau-PxxP5/6
  interaction with Tau-PxxP5/6 peptide, ITC: No interaction was observed
Tau-LckSH3 interaction
  Tau-LckSH3 interaction, Tau-Flag PLA: strongly inhibited; also recorded: inhibits Tau-LckSH3 interaction
